Laboratory results: patent publication US7387888B2, “Coronamycins” (priority 2004, dated 2008)
Values after ≈ are worked out from the molar mass of the structure shown. Values belong to the compound of their own block, whether it stands above or below them.

Columns and labels:
[1] = test system: Candida albicans (ATCC 24433); assay: microbroth dilution assay of human pathogenic yeasts (NCCLS M27A, Alamar Blue); assay type: cell-based; settings: 24 to 48 hours
Description: (§1) Microbroth dilution assays of human pathogenic yeasts were performed as described in the NCCLS M27A (NCCLS, 1997) with the addition of Alamar Blue (Trek Diagnostics Systems, Inc., Westlake, Ohio) as a colorimetric indicator of viability (Espinel-Ingroff et al., 1999, J. Clin. Microbiol. 37: 591-595). All isolates were obtained from the ATCC. The assays were performed in sterile 96 well plates. The total volume per well was 100 μl. Two wells were inoculated for a given concentration. The MIC was defined as that concentration of compound resulting in no visible growth of the test organism after 24 to 48 hours of incubation with the exception of Cryptococcus neoformans which was read at 72 hours. Flucytosine was included as a control antifungal compound.

[2] = test system: Candida albicans (ATCC 90028); assay: as above; assay type: cell-based; settings: 24 to 48 hours
Description: as §1

[3] = test system: Candida krusei (ATCC 6258); assay: as above; assay type: cell-based; settings: 24 to 48 hours
Description: as §1

[4] = test system: Candida parapsilosis (ATCC 22019); assay: as above; assay type: cell-based; settings: 24 to 48 hours
Description: as §1

[5] = test system: Candida parapsilosis (ATCC 90018); assay: as above; assay type: cell-based; settings: 24 to 48 hours
Description: as §1

[6] = test system: Candida tropicalis (ATCC 750); assay: as above; assay type: cell-based; settings: 24 to 48 hours
Description: as §1

[7] = test system: Cryptococcus neoformans (ATCC 32045); assay: as above; assay type: cell-based; settings: read at 72 hours
Description: as §1

[8] = test system: Saccharomyces cerevisiae (ATCC 9763); assay: as above; assay type: cell-based; settings: 24 to 48 hours
Description: as §1

[9] = test system: Plasmodium falciparum strain CSC-1 (Honduras); assay: antimalarial assay against Plasmodium falciparum (3H-phenylalanine uptake); assay type: cell-based; settings: read-out: IC50 against Plasmodium falciparum
Description: All cultures were maintained in a microaerophilic environment containing 1% oxygen/5% CO2 with the balance being nitrogen. […] Control cultures contained the same quantity of DMSO or water as that used in the experimental trials. Data were reported as IC50 values.
Parasite cultures, adjusted to 0.1-0.5% parasitemia by addition of freshly washed human erythrocytes, were pipetted into 96 well culture plates by adding 10 μl of a 50% cell suspension to each well to give a final volume of 5 μl of packed erythrocytes per well. The test compounds in RPMI 1640 were added at 95 μl per well to four wells per each concentration of test compound. Quadruplicate control wells were treated similarly with DMSO or water added without the test compounds present. The cultures were gassed and exposed to radiolabeled ^3[H]-phenylalanine (1 microcurie per well) for the final 24 hour of treatment. Cultures were monitored for bacterial contamination and for parasite viability by Giemsa staining of thin films. Ultimately, the cells were harvested onto glass-fiber filters, followed by liquid scintillation counting. The IC50 for each compound was determined by linear regression analysis using 50% of the control counts as the regression point. The experiment was repeated three times, the data averaged, and the standard deviation of the mean determined.

[10] = test system: human cancer cell line BT20 (breast epithelial cancer); assay: CellTiter 96 cell proliferation assay, BT20; assay type: cell-based; settings: BT-20, 50% viability, 96 hours incubation
Description: (§2) The BT20 cells were grown in the medium recommended by ATCC and were seeded into 96 well clear flat bottom plates at 3000 cells per well in 100 μl. The primary mammary cells were cultured as recommended by the manufacturer in mammary epithelial cell growth media (MEGM®) and were seeded at 3200 cells per well in 100 μl.
(§3) Each plate also contained some wells with cells plus medium only and some wells with medium only as controls. After addition of the compounds, the plates were incubated at 37° C. for 48 hours or 96 hours for the HMEC and BT20 cell lines, respectively.
(§4) The proliferation assay was performed using the manufacturer's protocols; a 20:1 solution of MTS and PMS was mixed and 10 to 40 μl was added to each well depending on the total volume in the wells. The plates were incubated at 37° C. for one to four hours, and the OD490 was determined. The OD reading of all wells was corrected for background by subtracting the reading of wells containing medium only. The wells containing cells only were used as a control for 100% viability.

in vitro = settings: human, primary mammary epithelial cells (HMEC)
Description: as §2, §3, §4

Structure (SMILES): Nc1[nH]c(=O)ncc1F [Flucytosine]
MIC [1]: 1.0 μml^−1
MIC [2]: 0.5 μml^−1
MIC [3]: 16 μml^−1
MIC [4]: 0.5 μml^−1
MIC [5]: 0.12 μml^−1
MIC [6]: <=0.06 μml^−1
MIC [7]: 8 μml^−1
MIC [8]: <=0.06 μml^−1

IC50 [9]: 7 ng/mL (≈ 0.0219 µM)
Structure (SMILES): CCN(CC)CCCC(C)Nc1ccnc2cc(Cl)ccc12 (centres unmarked) [chloroquine]

Structure (SMILES): CC(=O)O[C@H]1C(=O)[C@@]2(C)[C@H]([C@H](OC(=O)c3ccccc3)[C@]3(O)C[C@H](OC(=O)[C@H](O)[C@@H](NC(=O)c4ccccc4)c4ccccc4)C(C)=C1C3(C)C)[C@]1(OC(C)=O)CO[C@@H]1C[C@@H]2O [taxol]
IC50 [10]: 9 ng/mL (≈ 0.0105 µM)
IC50 at 48 h (in vitro): 25000 to 30000 ng/mL (≈ 29.3 to 35.1 µM)
